Experimental data from US9464082B2, “Aryl and arylalkyl substituted pyrazolyl and pyrimidinyl tricyclic enones as antioxidant inflammation modulators” (AbbVie Inc., priority 2014, dated 2016).

Tested on: IFNγ-Induced NO Production
Assay: Nitric Oxide Suppression Assay (Suppression of IFNγ-Induced NO Production)
Assay type: cell-based
Conditions: RAW264.7; RAW 264.7 mouse macrophage cells; 2 hour pre-treatment with compound (3 μM to 0.3 nM, 10 point curve); 20 ng/mL interferon gamma, ~18 hour; Griess detection; n=2-3 in duplicates
Outline: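 Griess-based absorbance read (520–550 nm) of supernatant after RAW 264.7 mouse macrophages received 10-point compound dilutions (3 μM–0.3 nM, DMSO ≤1%) for 2 h, then 20 ng/mL IFNγ for ~18 h at 37 °C. Signal normalised to IFNγ-only peak; IC50 fitted to mean of n=2-3 duplicates.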

Work on Cc1nc(-c2ccc3ncccc3c2)c2c(n1)[C@@]1(c3ccccc3)C=C(C#N)C(=O)[C@@H](C)[C@@H]1CC2 [Example 45, (6aS,7S,10aR)-2,7-dimethyl-8-oxo-10a-phenyl-4-(quinolin-6-yl)-5,6,6a,7,8,10a-hexahydrobenzo[h]quinazoline-9-carbonitrile] yielded an IC50 of 106 nM.
With C[C@@H]1C(=O)C(C#N)=C[C@]2(c3ccc(F)cc3)c3n[nH]cc3CC[C@@H]12 [Example 54, (5aS,6S,9aR)-9a-(4-fluorophenyl)-6-methyl-7-oxo-4,5,5a,6,7,9a-hexahydro-2H-benzo[g]indazole-8-carbonitrile] the IC50 was 35.5 nM.
For C[C@@H]1C(=O)C(C#N)=C[C@]2(c3ccc(F)cc3)c3ncncc3CC[C@@H]12 [Example 50, (6aS,7S,10aR)-10a-(4-fluorophenyl)-7-methyl-8-oxo-5,6,6a,7,8,10a-hexahydrobenzo[h]quinazoline-9-carbonitrile], the IC50 was 10.3 nM.
C[C@@H]1C(=O)C(C#N)=C[C@]2(c3ccccc3)c3n[nH]c(-c4cccc(NS(C)(=O)=O)c4)c3CCC12 (stereo partly drawn) [Example 113, N-{3-[(6S,9aR)-8-cyano-6-methyl-7-oxo-9a-phenyl-4,5,5a,6,7,9a-hexahydro-2H-benzo[g]indazol-3-yl]phenyl}methanesulfonamide] was tested, and the IC50 was 43 nM.
With CC(=O)n1cc2c(n1)[C@@]1(c3ccccc3)C=C(C#N)C(=O)[C@@H](C)[C@@H]1CC2 [Example 28, (5aS,6S,9aR)-2-acetyl-6-methyl-7-oxo-9a-phenyl-4,5,5a,6,7,9a-hexahydro-2H-benzo[g]indazole-8-carbonitrile] the IC50 was 39 nM.
COC(=O)c1ccc(-c2ncc3c(n2)[C@@]2(c4ccccc4)C=C(C#N)C(=O)[C@@H](C)[C@@H]2CC3)cc1 [Example 75, methyl 4-[(6aS,7S,10aR)-9-cyano-7-methyl-8-oxo-10a-phenyl-5,6,6a,7,8,10a-hexahydrobenzo[h]quinazolin-2-yl]benzoate] gave an IC50 of 12.7 nM.
In the case of C[C@@H]1C(=O)C(C#N)=C[C@]2(c3ccccc3)c3nc(-c4ccncc4)ncc3CC[C@@H]12 [Example 29, (6aS,7S,10aR)-7-methyl-8-oxo-10a-phenyl-2-(pyridin-4-yl)-5,6,6a,7,8,10a-hexahydrobenzo[h]quinazoline-9-carbonitrile], the IC50 is reported as 6.36 nM.
Work on C[C@@H]1C(=O)C(C#N)=C[C@]2(c3ccccc3)c3nn(C(=O)c4cscn4)cc3CC[C@@H]12 [Example 40, (5aS,6S,9aR)-6-methyl-7-oxo-9a-phenyl-2-(1,3-thiazol-4-ylcarbonyl)-4,5,5a,6,7,9a-hexahydro-2H-benzo[g]indazole-8-carbonitrile] yielded an IC50 of 45.4 nM.
Work on C[C@@H]1C(=O)C(C#N)=C[C@]2(c3ccccc3)c3ncncc3CC[C@@H]12 [Example 1, (6aS,7S,10aR)-7-methyl-8-oxo-10a-phenyl-5,6,6a,7,8,10a-hexahydrobenzo[h]quinazoline-9-carbonitrile] yielded an IC50 of 5.35 nM.
Cc1nc(-c2cccc(O)c2)c2c(n1)[C@@]1(c3ccccc3)C=C(C#N)C(=O)[C@@H](C)[C@@H]1CC2 [Example 109, (6aS,7S,10aR)-4-(3-hydroxyphenyl)-2,7-dimethyl-8-oxo-10a-phenyl-5,6,6a,7,8,10a-hexahydrobenzo[h]quinazoline-9-carbonitrile] gave an IC50 of 2.87 nM.
For C[C@@H]1C(=O)C(C#N)=C[C@]2(c3ccccc3)c3[nH]nc(-c4ccccc4)c3CC[C@@H]12 (racemic) [Example 6, rac-(5aS,6S,9aR)-6-methyl-7-oxo-3,9a-diphenyl-4,5,5a,6,7,9a-hexahydro-1H-benzo[g]indazole-8-carbonitrile], the IC50 was 37.5 nM.
COc1cccc([C@]23C=C(C#N)C(=O)[C@@H](C)[C@@H]2CCc2cn(C)nc23)c1 (racemic) [Example 4, rac-(5aS,6S,9aR)-9a-(3-methoxyphenyl)-2,6-dimethyl-7-oxo-4,5,5a,6,7,9a-hexahydro-2H-benzo[g]indazole-8-carbonitrile] was tested, and the IC50 was 114 nM.
C[C@@H]1C(=O)C(C#N)=C[C@]2(c3ccc(C(=O)N4CCCC4)cc3)c3ncncc3CC[C@@H]12 [Example 73, (6aS,7S,10aR)-7-methyl-8-oxo-10a-[4-(pyrrolidin-1-ylcarbonyl)phenyl]-5,6,6a,7,8,10a-hexahydrobenzo[h]quinazoline-9-carbonitrile] showed an IC50 of 152 nM.
Compound C[C@@H]1C(=O)C(C#N)=C[C@]2(c3cccc(C(=O)O)c3)c3n[nH]cc3CC[C@@H]12 [Example 71, 3-[(5aS,6S,9aR)-8-cyano-6-methyl-7-oxo-2,4,5,5a,6,7-hexahydro-9aH-benzo[g]indazol-9a-yl]benzoic acid] has an IC50 of 1470 nM.
In the case of C[C@@H]1C(=O)C(C#N)=C[C@]2(c3ccccc3)c3nc(C(C)(C)C)ncc3CC[C@@H]12 [Example 85, (6aS,7S,10aR)-2-tert-butyl-7-methyl-8-oxo-10a-phenyl-5,6,6a,7,8,10a-hexahydrobenzo[h]quinazoline-9-carbonitrile], the IC50 is reported as 33.8 nM.
For Cc1nc(-c2ccoc2)c2c(n1)[C@@]1(c3ccccc3)C=C(C#N)C(=O)[C@@H](C)[C@@H]1CC2 [Example 23, (6aS,7S,10aR)-4-(3-furyl)-2,7-dimethyl-8-oxo-10a-phenyl-5,6,6a,7,8,10a-hexahydrobenzo[h]quinazoline-9-carbonitrile], the IC50 was 6.98 nM.
In the case of Cc1nc(-c2ccc3nccn3c2)c2c(n1)[C@@]1(c3ccccc3)C=C(C#N)C(=O)[C@@H](C)[C@@H]1CC2 [Example 107, (6aS,7S,10aR)-4-(imidazo[1,2-a]pyridin-6-yl)-2,7-dimethyl-8-oxo-10a-phenyl-5,6,6a,7,8,10a-hexahydrobenzo[h]quinazoline-9-carbonitrile], the IC50 is reported as 10.7 nM.
C[C@@H]1C(=O)C(C#N)=C[C@]2(c3ccccc3)c3n[nH]c(-c4cccc(CCO)c4)c3CC[C@@H]12 [Example 116, (5aS,6S,9aR)-3-[3-(2-hydroxyethyl)phenyl]-6-methyl-7-oxo-9a-phenyl-4,5,5a,6,7,9a-hexahydro-2H-benzo[g]indazole-8-carbonitrile] gave an IC50 of 9.25 nM.
Cc1nc(-c2cnn(CCO)c2)c2c(n1)[C@@]1(c3ccccc3)C=C(C#N)C(=O)[C@@H](C)[C@@H]1CC2 [Example 127, (6aS,7S,10aR)-4-[1-(2-hydroxyethyl)-1H-pyrazol-4-yl]-2,7-dimethyl-8-oxo-10a-phenyl-5,6,6a,7,8,10a-hexahydrobenzo[h]quinazoline-9-carbonitrile] gave an IC50 of 2.27 nM.
For Cc1nc(-c2ccncc2)c2c(n1)[C@@]1(c3ccccc3)C=C(C#N)C(=O)[C@@H](C)[C@@H]1CC2 [Example 27, (6aS,7S,10aR)-2,7-dimethyl-8-oxo-10a-phenyl-4-(pyridin-4-yl)-5,6,6a,7,8,10a-hexahydrobenzo[h]quinazoline-9-carbonitrile], the IC50 was 5.9 nM.
Work on COc1ccc([C@]23C=C(C#N)C(=O)[C@@H](C)[C@@H]2CCc2cncnc23)cc1 [Example 70, (6aS,7S,10aR)-10a-(4-methoxyphenyl)-7-methyl-8-oxo-5,6,6a,7,8,10a-hexahydrobenzo[h]quinazoline-9-carbonitrile] yielded an IC50 of 5.27 nM.
For Cc1nc(-c2ccc(-c3[nH]ncc3Br)cc2)c2c(n1)[C@@]1(c3ccc(F)cc3)C=C(C#N)C(=O)[C@@H](C)[C@@H]1CC2 [Example 81, (6aS,7S,10aR)-4-[4-(4-bromo-1H-pyrazol-5-yl)phenyl]-10a-(4-fluorophenyl)-2,7-dimethyl-8-oxo-5,6,6a,7,8,10a-hexahydrobenzo[h]quinazoline-9-carbonitrile], the IC50 was 35 nM.
In the case of C[C@@H]1C(=O)C(C(N)=O)=C[C@]2(c3ccccc3)c3ncncc3CC[C@@H]12 [Example 131, (6aS,7S,10aR)-7-methyl-8-oxo-10a-phenyl-5,6,6a,7,8,10a-hexahydrobenzo[h]quinazoline-9-carboxamide], the IC50 is reported as 1390 nM.
Work on C[C@@H]1C(=O)C(C#N)=C[C@]2(c3ccccc3)c3n[nH]c(-c4cccc(O)c4)c3CC[C@@H]12 [Example 88, (5aS,6S,9aR)-3-(3-hydroxyphenyl)-6-methyl-7-oxo-9a-phenyl-4,5,5a,6,7,9a-hexahydro-2H-benzo[g]indazole-8-carbonitrile] yielded an IC50 of 20.1 nM.
In the case of C[C@@H]1C(=O)C(C#N)=C[C@]2(c3cccc(C(=O)O)c3)c3nc(-c4ccc(C(=O)O)cc4)ncc3CC[C@@H]12 [Example 104, 3-[(6aS,7S,10aR)-2-(4-carboxyphenyl)-9-cyano-7-methyl-8-oxo-6,6a,7,8-tetrahydrobenzo[h]quinazolin-10a(5H)-yl]benzoic acid], the IC50 is reported as 924 nM.
Compound COC(=O)n1cc2c(n1)[C@@]1(c3ccccc3)C=C(C#N)C(=O)[C@@H](C)[C@@H]1CC2 [Example 32, methyl (5aS,6S,9aR)-8-cyano-6-methyl-7-oxo-9a-phenyl-4,5,5a,6,7,9a-hexahydro-2H-benzo[g]indazole-2-carboxylate] has an IC50 of 25.9 nM.
Cc1nc(-c2cccc(CCC(=O)O)c2)c2c(n1)[C@@]1(c3ccccc3)C=C(C#N)C(=O)[C@@H](C)[C@@H]1CC2 [Example 155, 3-{3-[(6aS,7S,10aR)-9-cyano-2,7-dimethyl-8-oxo-10a-phenyl-5,6,6a,7,8,10a-hexahydrobenzo[h]quinazolin-4-yl]phenyl}propanoic acid] gave an IC50 of 107 nM.
With Cc1nc(O)c2c(n1)[C@@]1(c3ccccc3)C=C(C#N)C(=O)[C@@H](C)[C@@H]1CC2 [Example 20, (6aS,7S,10aR)-4-hydroxy-2,7-dimethyl-8-oxo-10a-phenyl-5,6,6a,7,8,10a-hexahydrobenzo[h]quinazoline-9-carbonitrile] the IC50 was 45 nM.
For COc1ccc([C@]23C=C(C#N)C(=O)[C@@H](C)[C@@H]2CCc2c(-c4ccc5[nH]cnc5c4)nc(C)nc23)cc1 [Example 90, (6aS,7S,10aR)-4-(1H-benzimidazol-5-yl)-10a-(4-methoxyphenyl)-2,7-dimethyl-8-oxo-5,6,6a,7,8,10a-hexahydrobenzo[h]quinazoline-9-carbonitrile], the IC50 was 7.32 nM.
For C[C@@H]1C(=O)C(C#N)=C[C@]2(c3ccccc3)c3nn(C)c(-c4cccc(-c5cccc(C(=O)O)c5)c4)c3CC[C@@H]12 [Example 166, 3′-[(5aS,6S,9aR)-8-cyano-2,6-dimethyl-7-oxo-9a-phenyl-4,5,5a,6,7,9a-hexahydro-2H-benzo[g]indazol-3-yl]biphenyl-3-carboxylic acid], the IC50 was 65.6 nM.
